Source: patent publication EP1614683B1, “Indazole compounds and pharmaceutical compositions for inhibiting protein kinases, and methods for their use” (priority 1999, dated 2001)
Read-outs that look alike come from different tables or passages of the source.

Assays:
[1] = tested on: lung cancer cells (line MV522); assay: Cancer cell proliferation (MV522) assay; format: cell-based
Procedure: The protocol for assessing cellular proliferation in cancer cells is similar to that used for assessments in HUVEC cells. Two thousand lung cancer cells (line MV522, acquired from American Tissue Cultural Collection) were seeded in growth media (RPMI1640 medium supplemented with 2 mM glutamine and 10% FBS). Cells are allowed to attach for 1 day prior to addition of test agents and /or vehicles. Cells are treated simultaneously with the same test agents used in the HUVEC assay. Cellular proliferation is quantified by MTT dye reduction assay 72 hours after exposure to test agents. The total length of the assay is 4 days vs. 5 for HUVEC cells because MV522 cells are not exposed to starvation medium.

[2] = tested on: VEGF dependent retinal vascular development; assay: In vivo assay of retinal vascular development in neonatal rats; design: species or system rat
Procedure: The development of the retinal vascular in rats occurs from postnatal day 1 to postnatal day 14 (P1-P14). […] To assess the ability of specific compounds to inhibit the activity of VEGF in vivo, compounds were formulated in an appropriate vehicle, usually 50% polyethylene glycol, average molecular weight 400 daltons, and 50% solution of 300 mM sucrose in deionized water. […] Six days after the intravitreal injection, the animals were sacrificed and the retinas dissected free from the remaining ocular tissue. […] The individual retinas are then flat-mount onto glass slides and examined to determine the extent of vascularization. […] The amount of vessel regression was used to assess the relative potency of the compounds after in vivo administration.
For more quantitative analysis of regression, images of ADPase-stained, flat-mounted retinas were captured with a digital camera attached to a dissecting microscope. Retinal images were then imported into an image analysis software (Image Pro Plus 4.0, Media Cybernetics, Silver Spring, MD). The software was employed to determine the percentage of the area of the retina that contained stained vessels. This value for the experimental eye was compared to that measured for the vehicle injected, contralateral eye from the same animal. The reduction in the vascular area seen in the eye that received compound as compared to the vehicle-injected eye was then expressed as the "percent regression" for that sample.

human FGF-R1 = human FGF-R1 (Homo sapiens, UniProt P11362, C488A/C584S/L457V); assay: FGF-R spectrophotometric assay; format: biochemical; conditions: for inhibition at 1 µM: compound concentration 1 µM, read-out: FGF-P* (% inhibition)
Procedure: The spectrophotometric assay was carried out as described above for VEGF-R2, except for the following changes in concentration: FGF-R = 50 nM, ATP = 2 mM, and poly(E4Y1) =15 mM.

[3] = tested on: human umbilical vein endothelial cells (HUVEC); assay: HUVEC proliferation assay (VEGF-stimulated, MTT); format: cell-based; conditions: Homo sapiens, HUVEC
in vitro = in vitro ADME, human; conditions: human liver microsomes, 5 µM test compound, 37 °C, 2 h; for remaining at 2 h, 5 µM: read-out: % remain (HLM, 2 h)
Outline: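 HLM diluted to 5 mg/mL in 100 mM KPO4, preincubated 10 min at 37 °C with NADPH-regenerating system. Compound (5 µM final) incubated at 37 °C in triplicate, sampled at 0 and 2 h into ice-cold acetonitrile, then LC-MS analysis.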

LCK tyrosine kinase = LCK tyrosine kinase (Homo sapiens, UniProt P06239, C224D/P223M); assay: LCK spectrophotometric assay; format: biochemical; conditions: read-out: Lck-P* (% inhibition)
Procedure: The spectrophotometric assay was carried out as described above for VEGF-R2, except for the following changes in concentration: LCK = 60 nM, MgCl2 = 0 mM, poly(E4Y1) = 20 mM.

[4] = tested on: VEGF dependent retinal neovascularization; assay: Neonatal rat model of retinopathy of prematurity; format: in vivo; conditions: Model ROP, intravitreal
Procedure: A second model of VEGF dependent retinal neovascularization was employed to evaluate the activities of this series of compounds. […] The animals are exposed for 24 hours to a concentration of 50% oxygen followed by 24 hours at a concentration of 10% oxygen. This alternating cycle of hyperoxia followed by hypoxia is repeated 7 times after which the animals are removed to room air (P14). Compounds are administered via intravitreal injection upon removal to room air and the animals are sacrificed 6 days later (P20). The isolated retinas are then isolated, stained mounted and analyzed as detail above in the development model. The effectiveness was also graded as is described for the development model.

in vivo = conditions: mouse, plasma, po, pH 2.3
CDK4/Cyclin D3 complex = CDK4/Cyclin D3 complex (Homo sapiens, UniProt P11802); assay: biochemical; conditions: read-out: CDK4 * (% inhibition)
[5] = molecular target: T1, phosphorylated Tie-2 (aa 775-1122) (Homo sapiens, UniProt Q02763); assay: TIE-2 spectrophotometric assay; format: biochemical; conditions: for inhibition at 1 µM: Table 5, bold values spectrophotometric assay, non-bolded DELFIA assay (bold not visible here), read-out: % Inhibition @ 1 µM Tie2-P
T1 construct: 4 to 12 nM phosphorylated Tie-2 (aa 775-1122); made in house; host or cells: insect cells
Outline: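 Human phosphorylated Tie-2 kinase activity was measured spectrophotometrically by coupling ADP formation, from phosphoryl transfer to poly(Glu4 Tyr), to NADH oxidation via pyruvate kinase and lactate dehydrogenase. Absorbance loss at 340 nm was read on a Beckman DU650. Reactions held 1 mM phosphoenolpyruvate, 0.24 mM NADH, 40 mM MgCl2, 5 mM DTT, 0.5 mM ATP, and 15 units/mL each of PK and LDH in 100 mM HEPES, pH 7.5.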

human CHK1 (FL-CHK1) = molecular target: T2, human CHK1 (FL-CHK1) (Homo sapiens, UniProt O14757); assay: CHK1 coupled spectrophotometric assay; format: biochemical; conditions: Table 1; read-out: CHK -1* (Ki)
T2 construct: C-terminally His-tagged full-length human CHK1 (FL-CHK1) was expressed using the baculovirus/insect cell system; made in house; host or cells: baculovirus/insect cell system
T2 sequence (O14757 1-476): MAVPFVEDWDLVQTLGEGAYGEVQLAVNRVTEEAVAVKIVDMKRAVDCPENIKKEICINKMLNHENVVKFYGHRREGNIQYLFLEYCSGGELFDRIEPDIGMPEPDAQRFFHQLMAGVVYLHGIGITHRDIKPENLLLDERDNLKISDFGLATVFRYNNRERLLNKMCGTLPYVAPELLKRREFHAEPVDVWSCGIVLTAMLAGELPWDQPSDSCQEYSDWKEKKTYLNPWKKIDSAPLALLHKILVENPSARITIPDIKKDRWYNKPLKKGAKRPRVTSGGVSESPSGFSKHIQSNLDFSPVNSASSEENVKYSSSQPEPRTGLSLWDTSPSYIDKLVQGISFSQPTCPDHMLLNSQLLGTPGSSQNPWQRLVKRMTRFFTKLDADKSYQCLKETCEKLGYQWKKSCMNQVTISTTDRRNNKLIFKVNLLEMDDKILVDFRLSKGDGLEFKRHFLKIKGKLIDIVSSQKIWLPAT
Description: CHK1 Construct for Assay: C-terminally His-tagged full-length human CHK1 (FL-CHK1) was expressed using the baculovirus/insect cell system. […] The protein was purified by conventional chromatographic techniques.
The production of ADP from ATP that accompanies phosphoryl transfer to the synthetic substrate peptide Syntide-2 ([…]) was coupled to oxidation of NADH using phosphoenolpyruvate (PEP) through the actions of pyruvate kinase (PK) and lactic dehydrogenase (LDH). The oxidation of NADH was monitored by following the decrease of absorbance at 340 nm (∈340 = 6.22 cm^-1 mM^-1) using a HP8452 spectrophotometer. […] Assays were initiated with 10 nM of FL-CHK1. Ki values were determined by measuring initial enzyme activity in the presence of varying concentrations of test compounds. The data were analyzed using Enzyme Kinetic and Kaleidagraph software.

[6] = PO, 25 mg/kg, vehicle PEG400:H2O pH 2.3 30:70
[7] = MV522, Table 1, read-out: MV522 IC50
[8] = Table 1, + albumin, read-out: HUVEC + albumin IC50
[9] = Table 1, compound concentration 1 µM
[10] = 10 mg/ml, vehicle PEG/water 70:30
[11] = 5 mg/ml, vehicle PEG/water 70:30

Sequence of human FGF-R1 (P11362 456-766 L457V/C488A/C584S): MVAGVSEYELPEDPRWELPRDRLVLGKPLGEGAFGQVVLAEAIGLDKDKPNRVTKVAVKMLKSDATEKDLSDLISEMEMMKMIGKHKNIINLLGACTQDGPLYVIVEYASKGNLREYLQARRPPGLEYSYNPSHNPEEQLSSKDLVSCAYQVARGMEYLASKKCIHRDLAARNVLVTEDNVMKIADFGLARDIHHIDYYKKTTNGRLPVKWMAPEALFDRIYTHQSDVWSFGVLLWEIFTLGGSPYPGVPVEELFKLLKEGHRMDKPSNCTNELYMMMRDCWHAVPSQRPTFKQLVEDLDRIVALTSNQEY
Sequence of LCK tyrosine kinase (P06239 223-509 P223M/C224D): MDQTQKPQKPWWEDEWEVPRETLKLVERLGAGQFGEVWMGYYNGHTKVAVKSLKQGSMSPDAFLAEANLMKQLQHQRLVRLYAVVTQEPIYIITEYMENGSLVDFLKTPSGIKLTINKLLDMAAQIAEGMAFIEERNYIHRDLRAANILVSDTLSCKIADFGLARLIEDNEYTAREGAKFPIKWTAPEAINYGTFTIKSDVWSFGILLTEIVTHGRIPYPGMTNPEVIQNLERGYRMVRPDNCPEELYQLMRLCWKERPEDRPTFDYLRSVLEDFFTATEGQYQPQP
T1 sequence (Q02763 775-1122): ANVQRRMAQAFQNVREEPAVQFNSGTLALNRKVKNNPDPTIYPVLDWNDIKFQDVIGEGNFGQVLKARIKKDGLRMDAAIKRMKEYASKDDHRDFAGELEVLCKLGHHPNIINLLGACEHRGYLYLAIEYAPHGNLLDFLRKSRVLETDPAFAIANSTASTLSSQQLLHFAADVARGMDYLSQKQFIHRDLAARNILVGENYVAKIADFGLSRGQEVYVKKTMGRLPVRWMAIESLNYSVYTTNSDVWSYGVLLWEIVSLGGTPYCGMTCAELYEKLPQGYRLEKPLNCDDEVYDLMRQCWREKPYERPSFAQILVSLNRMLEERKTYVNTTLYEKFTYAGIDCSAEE
Sequence of CDK4/Cyclin D3 complex (P11802 whole entry, the tested form may be a part): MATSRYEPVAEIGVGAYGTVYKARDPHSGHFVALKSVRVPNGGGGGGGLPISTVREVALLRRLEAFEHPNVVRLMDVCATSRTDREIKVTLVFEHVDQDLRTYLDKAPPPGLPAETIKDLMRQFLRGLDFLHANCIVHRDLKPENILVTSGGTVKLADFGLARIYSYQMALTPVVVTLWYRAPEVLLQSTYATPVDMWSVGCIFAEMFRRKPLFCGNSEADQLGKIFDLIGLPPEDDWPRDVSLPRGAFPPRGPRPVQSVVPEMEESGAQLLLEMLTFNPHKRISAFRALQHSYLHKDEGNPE
Sequence of CDK4/Cyclin D3 complex (P30281 whole entry partner, the tested form may be a part): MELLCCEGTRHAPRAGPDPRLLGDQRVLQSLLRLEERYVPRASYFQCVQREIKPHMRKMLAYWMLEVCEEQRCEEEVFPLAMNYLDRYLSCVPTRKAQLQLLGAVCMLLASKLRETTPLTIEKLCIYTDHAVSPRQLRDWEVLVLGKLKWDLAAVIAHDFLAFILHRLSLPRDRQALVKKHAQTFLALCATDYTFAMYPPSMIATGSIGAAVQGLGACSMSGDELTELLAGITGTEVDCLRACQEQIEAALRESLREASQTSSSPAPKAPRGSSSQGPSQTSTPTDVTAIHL

| SMILES | IC50 [1, 7] | inhibition at 1 µM (human FGF-R1; Table 1) | IC50 [3, 8] | IC50 ([3]; Table 1, read-out: HUVEC IC50) | % remain (HLM, 2 h) (in vitro) | inhibition at 1 µM (LCK tyrosine kinase; [9]) | Initial Evaluation [4, 10] | remaining at 2 h, 5 µM (in vitro) | inhibition at 1 µM [5] | further results |
| --- | --- | --- | --- | --- | --- | --- | --- | --- | --- | --- |
| O=C(Nc1cccc(C(=O)c2ccc3c(-c4nc5ccccc5[nH]4)n[nH]c3c2)c1)c1ccccc1 [Reference Example 42(b), 6-(3-Benzamidobenzoyl)-3-(1H-benzoimidazol-2-yl)-1H-indazole] | 2.1 µM | 27% | 29 nM | 2.1 nM | 81% | 75% | – | – | – | % Inhibition ([2]; Model P9, intravitreal, 10 mg/ml, vehicle PEG/water 70:30): 40% |
| O=C(Nc1cccc(C(=O)c2ccc3c(/C=C/c4ccccc4)n[nH]c3c2)c1)c1ccccc1 [19(b), N-[3-(3-Styryl-1H-indazole-6-carbonyl)-phenyl]-benzamide] | 4.3 µM | 60% | 27 nM | 2.9 nM | – | 58% | ++ (two pluses being judged to be approximately 25-75 % regression) | 137% | – | Cmax (in vivo; 50 mg/kg): 30 ng/mL; inhibition at 1 µM (CDK4/Cyclin D3 complex): 11% |
| COc1cc(-c2ccc3c(-c4cc5ccccc5[nH]4)n[nH]c3c2)ccc1O [2(d), 3-(1H-Indol-2-yl)-6-(3-methoxy-4-hydroxy-phenyl)-1H-indazole] | – | – | – | – | – | – | – | – | – | IC50 ([1]; MV522, read-out: MV522 IC50 (µM)): 0.18 µM; inhibition at 10 µM ([5]; read-out: % Inhibition Tie2-P, compound tested at 10 µM): 90%; Ki (human FGF-R1; Table 1, read-out: FGF-P* (Ki)): 68 nM; IC50 ([3]; read-out: HUVEC IC50 (nM)): 450 nM; Ki (human CHK1 (FL-CHK1)): 91 nM; inhibition at 1 µM (LCK tyrosine kinase): 43% |
| O=C(Nc1cccc(Oc2ccc3c(/C=C/c4cccs4)n[nH]c3c2)c1)c1ccccc1 [Reference Example 30(a), 6-[3-benzamidophenoxy]-3-E-[2-(thien-2-yl)thenyl]-1H-indazole] | 5.7 µM | 94% | 22 nM | 1.6 nM | 64% | 45% | ++ (two pluses being judged to be approximately 25-75 % regression) | – | 19% | % Inhibition [4, 10]: 48% |
| C=C(c1cccc(NC(C)=O)c1)c1ccc2c(/C=C/c3ccccc3)n[nH]c2c1 [Example 23, 6-(1-(3-Acetamido-phenyl)-vinyl)-3-styryl-1H-indazole] | 5.7 µM | 14% | 106 nM | 9.5 nM | – | 12% | – | – | 5% | inhibition at 1 µM (CDK4/Cyclin D3 complex): 17% |
| O=C(Nc1cccc(Oc2ccc3c(/C=C/c4ccc(Cl)cc4)n[nH]c3c2)c1)c1ccccc1 [6(a), N-(3-[3-[2-(4-Chloro-phenyl)-vinyl]-1H-indazol-6-yloxy}-phenyl)-benzamide] | 3.5 µM | 67% | 50 nM | 8.5 nM | – | 33% | – | 69% | – | Initial Evaluation ([4]; 5 mg/ml, vehicle PEG/water): ++ (two pluses being judged to be approximately 25-75 % regression) |
| Cn1ccnc1C(=O)Nc1cccc(Oc2ccc3c(/C=C/c4ccccn4)n[nH]c3c2)c1 [Reference Example 31(e), 6-[3-((1-Methylimidazol-2-yl)carboxamido)phenoxy]-3-E-[2-(pyridin-2-yl)ethenyl]-1H-indazole] | 8.6 µM | 62% | 6.2 nM | – | 49% | 43% | – | – | – | % Inhibition ([2]; Model P8, intravitreal, 5 mg/ml, vehicle PEG/water 50:50): 24%; AUC (in vivo; 25 mg/kg): > 30300 ng·h/mL; T1/2 [6]: 13.1 h |
| Cc1cccc(C(=O)Nc2cccc(Oc3ccc4c(-c5cc6ccccc6[nH]5)n[nH]c4c3)c2)c1 [6(b), N-{3-[3-(2-Indolyl)-1H-indazol-6-yloxy]-phenyl}-3-methyl benzamide] | 4 µM | 95% | 60 nM | 8 nM | – | 81% | ++ (two pluses being judged to be approximately 25-75 % regression) | – | – | – |
| Cc1cccc(C(=O)Nc2cccc(Oc3ccc4c(/C=C/c5ccccc5)n[nH]c4c3)c2)c1 [5(b), 3-Methyl-N-[3-(3-styryl-1h-indazol-6-yloxy)-phenyl]-benzamide] | 8.5 µM | – | 33 nM | 3.7 nM | – | 78% | – | – | – | % Inhibition [4, 11]: 45%; Initial Evaluation [4, 11]: ++ (two pluses being judged to be approximately 25-75 % regression) |
| CC(=O)Nc1cccc(Oc2ccc3c(/C=C/c4ccccc4)n[nH]c3c2)c1 [4(b), N-[3-(3-Styryl-1H-indazol-6-yloxy)-phenyl]-acetamide] | 3.2 µM | – | 205 nM | 25 nM | – | 13% | – | 63% | 29% | Ki (human FGF-R1): 4.9 nM |
